Test results published in patent publication US20250262190A1, “USE OF LAT1 INHIBITORS TO TREAT OBESITY” (Georgetown University, priority 2022, published 2025).

Key:
HFD-fed mice [1] = test: Body weight, fat mass and food intake in HFD-fed mice injected with JPH203; format: in vivo; settings: 25 mg/kg intraperitoneally
Description: (§1) A study was conducted to determine if inhibiting Slc7a5 prevents the metabolic response of adipocyte to excess […] intake and obesity. Mice fed with HFD for 3 months were then injected intraperitoneally with either (a) JPH203, a potent Slc7a5 inhibitor, at a dose of 25 mg/kg, or (b) PBS (vehicle) as control, for 15 consecutive days while on HFD (Days 1-15). Mice fed with a normal diet and receiving no injection were included as a comparator.

HFD-fed mice [2] = test: Toxicity of JPH203 treatment in HFD-fed mice (liver and kidney function, activity, organ mass, whole blood counts); format: in vivo; settings: 25 mg/kg intraperitoneally
Description: as §1
In addition, liver function (AST, ALT), kidney function (creatinine), and effect on bone marrow and immune response (whole blood counts) were tested to examine the toxicity of the pharmacological JPH203 treatment. […] Also, there was no effect of JPH203 treatment on liver, heart, or kidney weight (see FIG. 3, Panel E).

HFD-fed mice [3] = test: Serum levels of adipokine and cytokines by ELISA in HFD-fed mice; format: in vivo; settings: 25 mg/kg intraperitoneally, 15 days, vs control HFD-fed mice
Description: Panels A-G show serum levels of leptin, insulin like growth factor 1 (IGF1), monocyte chemoattractant protein-1 (MCP1), vascular endothelial growth factor (VEGF), interleukin 1 alpha (ILla), interleukin 1 beta (IL1β), interleukin 6, and tumor necrosis factor alpha (TNFa), respectively, in normal diet-fed mice, HFD-fed mice injected with JPH203, and control HFD-fed mice. [“AU”=arbitrary unit; data shown as mean±SEM and significance was determined by one-way analysis of variance (ANOVA) or unpaired two-tailed t-test; *P<0.05, **P<0.01; ***P<0.001, ****P<0.0001.]
as §1
Obesity is correlated with chronically high levels of several cytokines which produced primarily by adipose tissues, which play a role in chronic inflammatory states.

[4] = test system: epididymal white adipose tissue of HFD-fed mice; test: Gene expression (mRNA) in epididymal white adipose tissue of HFD-fed mice; format: in vivo
Description: as §1
To determine if JPH203 affected adipose tissue function, the epididymal and inguinal white adipose tissues were dissected and analyzed 15 days after treatment.

[5] = test system: adipose tissues of HFD-fed mice; test: Nile red and Mitotracker staining of adipose tissues of HFD-fed mice; format: in vivo
Description: [“Epi fat”=epididymal white adipose tissue; “SubQ”=inguinal white adipose tissue; “iBAT”=interscapular brown adipose tissue; data shown as mean±standard error (SE) and significance was determined by one-way ANOVA or unpaired two-tailed t-test; *P<0.05, **P<0.01.]
as §1

HFD-fed mice [6] = test: Glucose homeostasis and intraperitoneal glucose tolerance testing in HFD-fed mice; format: in vivo
Description: [data shown as mean±SEM and significance was determined by one-way ANOVA (for analysis shown in Panels A, B, C, D, and G) or multiple unpaired t-test (for analysis shown in Panel F); *P<0.05, **P<0.01, ***P<0.001.]
as §1
Mice that were obese due to HFD were hyperglycemic and hyperinsulinemia regardless of fed or fasting status (see FIG. 9, Panels A-D).

[7] = test system: differentiated adipocytes 3T3L1 co-cultured with macrophage (RAW 264.7 cells); test: Adipogenesis in co-culture of adipocyte 3T3L1 and macrophage RAW 264.7 cells; format: cell-based
Description: [Data shown as mean±SE and significance was determined by two-way ANOVA (for analysis shown in Panel B) and unpaired two-tailed t-test (for analysis shown in Panels D-G; *P<0.05, ***P<0.001, ****P<0.0001.]
A study was conducted to determine which aspects of the adipocyte lineage was affected by inhibition of Slc7a5. To this end, pre-adipocytes or differentiated adipocytes 3T3L1 were co-cultured in the presence of macrophage (RAW 264.7 cells). The experimental design is illustrated in FIG. 10, Panel A.
The study examined expression of PPARγ and mTOR, and Nile red stained lipid droplets, which are indicators of adipogenesis and are shown to increase in differentiated adipocytes compared to preadipocytes.

[8] = epididymal adipose tissues, vs control HFD-fed mice
[9] = epididymal white adipose tissue, 15 days after treatment
[10] = epididymal white adipose tissue, 15 days after treatment, vs control HFD-fed mice
[11] = HFD-fed mice injected with JPH203
[12] = epididymal and inguinal white adipose tissues, vs control HFD-fed mice
[13] = HFD-fed mice injected with JPH203 vs control HFD-fed mice
[14] = co-culture of 3T3L1 and RAW 264.7 cells
[15] = fully differentiated adipocytes as compared to the preadipocytes, in the presence of macrophages

Nc1cc(COc2c(Cl)cc(C[C@H](N)C(=O)O)cc2Cl)c2oc(-c3ccccc3)nc2c1 [JPH203, (S)-2-Amino-3-(4-((5-amino-2-phenylbenzo[d]oxazol-7-yl)methoxy)-3,5-dichlorophenyl)propanoic acid]
mass of interscapular brown adipose tissue and epididymal and inguinal white adipose tissue, normal fed mice compared to HFD-fed mice injected with JPH203 (HFD-fed mice [1]; at 15 days): not significantly less | body weight (HFD-fed mice [1]; HFD-fed mice, after 15 days, vs HFD-fed mice injected with vehicle (PBS)): significant weight reduction | mass of epididymal white adipose tissue (HFD-fed mice [1]; HFD-fed mice, at 15 days, vs control HFD-fed mice): significantly less | appetite suppression (food and water consumption) as contributor to weight loss (HFD-fed mice [1]; HFD-fed mice, over 15 days): not a major contributing factor | Creatine levels (kidney function) (HFD-fed mice [2]; 15 days): in the normal ranges | complete blood counts (CBC): effect on bone marrow and immune response (HFD-fed mice [2]; 15 days): no significant effect | mice activity (running wheel experiment) (HFD-fed mice [2]; 15 days): does not decrease mice activity | AST serum level (HFD-fed mice [2]; 15 days, normal is 13-35 IU/L): in the normal range | ALT serum level (HFD-fed mice [2]; 15 days, normal is 37-88 IU/L): in the normal range | Creatine levels compared with control HFD-fed mice (HFD-fed mice [2]; 15 days, vs control HFD-fed mice): significantly less | liver, heart, or kidney weight (HFD-fed mice [2]; day 15): no effect | serum level of IGF1 (HFD-fed mice [3]): decreased | serum level of IL1α (HFD-fed mice [3]): decreased | serum level of IL1β (HFD-fed mice [3]): decreased | serum level of IL6 (HFD-fed mice [3]): increased | serum level of MCP1 (HFD-fed mice [3]): decreased | serum level of TNFα (HFD-fed mice [3]): decreased | serum level of VEGF (HFD-fed mice [3]): decreased | serum level of leptin (HFD-fed mice [3]): decreased | genes related to anti-adipogenic factor [4, 8]: upregulated | genes related to energy dissipation/fatty acid β oxidation [4, 8]: upregulated | genes related to fatty acid uptake [4, 8]: upregulated | genes related to glucose uptake/glycolysis [4, 8]: downregulated | genes related to glyceroneogenesis/fatty acid synthesis [4, 8]: downregulated | genes related to lipogenesis [4, 8]: downregulated | genes related to lipolysis [4, 8]: downregulated | genes related to pentose phosphate pathway (NADPH production) [4, 8]: downregulated | Hif2α expression (downstream target of mTOR signaling) [4, 9]: decreased | Slc7a5 expression [4, 9]: did not change | anti-inflammatory arginase 1 (Arg1) gene expression [4, 9]: increased | proinflammatory nitric oxide synthase 2 (Nos2/Inos) gene expression [4, 9]: reduced | mRNA levels for beiging and browning markers [4, 10]: increased | mRNA levels for general adipogenic markers [4, 10]: decreased | mRNA levels for white adipogenic markers [4, 10]: decreased | mitochondrial biogenesis in interscapular brown adipose tissues (Mitotracker staining) [5, 11]: significantly increased | adipocyte lipid content (Nile red staining) [5, 12]: lower lipid content | adipocyte size (Nile red staining) [5, 12]: smaller sized adipocytes | reduction in blood glucose concentration after glucose administration (IPGTT) (HFD-fed mice [6]; [11]): significantly faster reduction | correlation of weight loss with decreased baseline glucose (HFD-fed mice [6]; HFD-fed mice injected with JPH203 compared with control HFD-fed mice): positively correlated | fasting glucose (HFD-fed mice [6]; [13]): lower | fed glucose (HFD-fed mice [6]; [13]): lower | glucose tolerance (HFD-fed mice [6]; [13]): improved | adipocyte differentiation [7, 14]: decreased | cell survival / cell death [7, 14]: does not affect cell survival | lipid droplets (Nile red stained) [7, 14]: reduction | PPARγ expression [7, 15]: reduced | mTOR expression [7, 15]: reduced
